Key:
Biodistribution in rats = format: in vivo, male rats; details: i.v.
Procedure: Biodistribution in Rats--Methods
The quantitative biodistribution was studied in male rats at 2 minutes, 1 hour and 4 hours post-injection
Rats under light anaesthesia were injected intravenously with 0.1 ml of test agent. Three rats were sacrificed (anaesthesia followed by exsanguination) at 2, 60 and 240 minutes, post-injection. The percentage of the injected dose in the excreta and organs and tissues was determined by dissection and assay for radioactivity in an automatic gamma counter.

[1] = system: isolated (Langendorff) rat hearts; test: Isolated perfused heart (Langendorff), hypoxic vs oxic uptake/retention; details: for Hypoxic/Oxic Ratio (H/O): ^99m Tc complex (or ^123 I-IAZA), 20 min infusion, 15 min washout; for Normalised Hypoxic Retention: relative to ^3 H-misonidazole activity
Procedure: A 15-minute cold buffer washout period follows. y activity in the heart is monitored using a collimated NaI probe detector positioned over the heart.
Activity in hearts, relative to perfusate activity, is calculated for each nuclide and data evaluated for each compound for activity in hypoxic and oxic hearts (hypoxic:oxic ratio) and also relative to the 3 H-misonidazole activity (normalised retention) using Formula 1. [formula] Results

[2] = 2 min post-injection, ^99m Tc complex
[3] = 240 min post-injection (third printed value)
[4] = second of two values, 60 or 240 min not assignable

| SMILES | Bladder/Urine (Biodistribution in rats; 2 min post-injection) | Blood (Biodistribution in rats; 2 min post-injection) | Gut (Biodistribution in rats; 2 min post-injection) | Kidney (Biodistribution in rats; 2 min post-injection) | Liver (Biodistribution in rats; 2 min post-injection) | Muscle (Biodistribution in rats; [2]) | Gut (Biodistribution in rats; 60 min post-injection) | Muscle (Biodistribution in rats; 60 min post-injection) | Muscle (Biodistribution in rats; [3]) | Gut (Biodistribution in rats; 240 min post-injection) | Blood (Biodistribution in rats; [4]) | Kidney (Biodistribution in rats; [4]) | Liver (Biodistribution in rats; [4]) | hypoxia selectivity / hypoxic/oxic ratio / hypoxic retention (in words) [1] | Hypoxic/Oxic Ratio (H/O) [1] | Normalised Hypoxic Retention [1] |
| --- | --- | --- | --- | --- | --- | --- | --- | --- | --- | --- | --- | --- | --- | --- | --- | --- |
| CC(=NO)C(C)NCCCCNC(C)C(C)=NO (stereo not drawn) [Compound XIII, 4,9-Diaza-3,10-dimethyldodecan-2,11-dione dioxime] | 1.1 percent injected dose | 9.8 percent injected dose | 11.4 percent injected dose | 8.8 percent injected dose | 18.4 percent injected dose | 25.7 percent injected dose | 23.0 percent injected dose | 10.1 percent injected dose | 7.1 percent injected dose | 25.6 percent injected dose | 5.0 percent injected dose | 8.8 percent injected dose | 20.4 percent injected dose |  |  |  |
| CC(C)(C=NO)NCCCCNC(C)(C)C(Cn1ccnc1[N+](=O)[O-])=NO [Compound XII, 3,8-diaza-10-hydroxyimino-11-(2-nitro-1-imidazolyl)-2,2,9,9-tetramethylundecanal oxime] | 1.2 percent injected dose | 10.8 percent injected dose | 13.4 percent injected dose | 13.3 percent injected dose | 16.0 percent injected dose | 23.9 percent injected dose | 31.9 percent injected dose | 8.2 percent injected dose | 5.2 percent injected dose | 35.5 percent injected dose | 2.0 percent injected dose | 5.5 percent injected dose | 11.0 percent injected dose | little or no effect on both the hypoxic/oxic ratio and normalised hypoxic retention | 9.5 | 1.9 |
| CC(C)(NCCCCNC(C)(C)C(Cn1ccnc1[N+](=O)[O-])=NO)C(Cn1ccnc1[N+](=O)[O-])=NO [Compound XI, 1,12-bis(2-Nitro-1-imidazolyl)-4,9-diaza-3,3,10,10-tetramethyldodecan-2,11-dione dioxime] | 0.2 percent injected dose | 10.8 percent injected dose | 18.2 percent injected dose | 8.6 percent injected dose | 21.7 percent injected dose | 18.7 percent injected dose | 56.7 percent injected dose | 5.6 percent injected dose | 3.1 percent injected dose | 66.0 percent injected dose | 1.4 percent injected dose | 2.1 percent injected dose | 7.3 percent injected dose | further reduces the hypoxia selectivity | 3.4 | 0.98 |
| CCC(=NO)C(C)(C)NCCCCNC(C)(C)C(CC)=NO [Compound VIII, 5,10-diaza-4,4,11,11-tetramethyltetradecan-3,12-dione dioxime] | 0.6 percent injected dose | 9.0 percent injected dose | 13.9 percent injected dose | 7.8 percent injected dose | 13.6 percent injected dose | 29.7 percent injected dose | 36.2 percent injected dose | 7.4 percent injected dose | 2.4 percent injected dose | 46.7 percent injected dose | 1.8 percent injected dose | 2.5 percent injected dose | 13.1 percent injected dose |  | 34 | 2.2 |
| COC(=O)C(CCCNC(C)(C)C(C)=NO)NC(C)(C)C(C)=NO (stereo not drawn) [Compound XVI, 4,9-diaza-3,3,10,10-tetramethyldodecan-2,11-dione dioxime-8-carboxylic acid methyl ester] | 0.3 percent injected dose | 17.8 percent injected dose | 6.3 percent injected dose | 13.8 percent injected dose | 4.4 percent injected dose | 24.4 percent injected dose | 6.5 percent injected dose | 3.7 percent injected dose | 2.3 percent injected dose | 12.4 percent injected dose | 3.1 percent injected dose | 7.6 percent injected dose | 2.5 percent injected dose |  | 4.0 | 0.22 |
| CC(=NO)C(C)(C)NCCCCCNC(C)(C)C(C)=NO [Compound III, 4,10-diaza-3,3,11,11-tetramethyltridecan-2,12-dione dioxime] | 0.2 percent injected dose | 18.1 percent injected dose | 8.2 percent injected dose | 11.3 percent injected dose | 9.7 percent injected dose | 26.9 percent injected dose | 25.0 percent injected dose | 10.1 percent injected dose | 3.3 percent injected dose | 35.6 percent injected dose | 1.1 percent injected dose | 4.2 percent injected dose | 5.4 percent injected dose |  |  |  |
| CC(C)(C=NO)NCCCCNC(C)(C)C=NO [Compound VI, 3,8-diaza-2,2,9,9-tetramethyldecan-1,10-dial dioxime] | 0.6 percent injected dose | 13.5 percent injected dose | 8.6 percent injected dose | 12.5 percent injected dose | 12.2 percent injected dose | 24.8 percent injected dose | 16.3 percent injected dose | 13.4 percent injected dose | 10.0 percent injected dose | 21.2 percent injected dose | 5.3 percent injected dose | 10.4 percent injected dose | 13.7 percent injected dose |  | 3.2 | 0.67 |
| CCC(=NO)C(C)(C)NCCCCNC(C)(C)C=NO [Compound VII, 3,8-diaza-10-(hydroxyimino)-2,2,9,9-tetramethyl dodecanal oxime] | 0.8 percent injected dose | 11.8 percent injected dose | 12.1 percent injected dose | 9.8 percent injected dose | 12.9 percent injected dose | 25.6 percent injected dose | 23.2 percent injected dose | 9.2 percent injected dose | 7.5 percent injected dose | 31.3 percent injected dose | 3.0 percent injected dose | 3.4 percent injected dose | 11.6 percent injected dose |  | 8.8 | 1.5 |
| CCC(=NO)C(C)(C)NCCCCNC(C)(C)C(C)=NO [Compound IX, 4,9-diaza-3,3,10,10-tetramethyltridecan-2,11-dione dioxime] | 0.8 percent injected dose | 10.1 percent injected dose | 13.8 percent injected dose | 7.7 percent injected dose | 12.9 percent injected dose | 32.1 percent injected dose | 31.6 percent injected dose | 8.3 percent injected dose | 3.0 percent injected dose | 37.7 percent injected dose | 2.0 percent injected dose | 2.2 percent injected dose | 11.2 percent injected dose |  | 8.4 | 2.1 |
| O=[N+]([O-])c1nccn1[C@H]1O[C@H](C[123I])[C@@H](O)[C@@H]1O [^123 I-IAZA, ^123 I-iodoazomycin arabinoside, reference compound] |  |  |  |  |  |  |  |  |  |  |  |  |  |  | 10 | 2.7 |
| COCC(=NO)C(C)(COC)NCCCCNC(C)(COC)C(COC)=NO (stereo not drawn) [Compound XV, 3,10-Bis(methoxymethyl)-4,9-diaza-1,12-dimethoxy-3,10-dimethyldodecan-2,11-dione dioxime] | 1.2 percent injected dose | 12.8 percent injected dose | 9.5 percent injected dose | 14.2 percent injected dose | 10.2 percent injected dose | 27.4 percent injected dose | 21.3 percent injected dose | 5.7 percent injected dose | 1.9 percent injected dose | 32.1 percent injected dose | 1.7 percent injected dose | 6.2 percent injected dose | 6.3 percent injected dose |  | 1.2 | 1.4 |

Source: patent US5997843A, “Radiometal complexes that localise in hypoxic tissue” (priority 1993, dated 1999)
